Data from US20220257595A1, “MACITENTAN FOR USE IN TREATING PORTOPULMONARY HYPERTENSION” (ACTELION PHARMACEUTICALS LTD, priority 2019, published 2022).

What was measured:
patients with PoPH [1] = test: PORTICO: hepatic venous pressure gradient by hepatic vein catheterization; assay type: in vivo, human; conditions: macitentan group n=15, no TIPS
Protocol: (ii) Hemodynamic measurements—hepatic vein catheterization: HVPG, the difference between portal pressure and hepatic pressure, was measured by HVC at Baseline (Visit 1/Screening) and Week 12, or at permanent discontinuation of DB study treatment if prior to Week 12 (at the investigator's discretion). Where possible, HVPG was measured at the same time as RHC. The second measurement during the study was required to be performed within 1 week prior to EOT-DB if it was not possible to perform the HVC on the same day as the RHC. HVPG measurements were performed after at least 4 hours of fasting, at rest, in the supine position, under local anesthesia and mild sedation. A catheter introducer was placed into the right jugular vein (or femoral) using the Seldinger technique. It was used to advance a balloon-tipped catheter into the main right hepatic vein for repeated measurements of wedged (occluded) and free hepatic venous pressures. Intravascular pressures were measured using highly sensitive pressure transducers, calibrated before each measurement. HVPG was calculated as the difference between wedged and free hepatic venous pressures. […] The mean of these two measurements was considered final. […]

patients with PoPH [2] = test: PORTICO safety: hematology (platelets, lymphocytes, neutrophils); assay type: in vivo
Text: For the evaluation of treatment-emergent safety endpoints in the DB phase, the observation period for each individual subject started at the time of the first administration of macitentan or placebo and ended with the start of OL treatment or 30 days after DB treatment discontinuation (whichever occurred first). The safety variables listed below apply to the DB treatment-emergent period and the macitentan treatment-emergent period. The DB treatment-emergent period was defined as the period from the DB treatment start date up to the EOT-DB+30 days or to the EOT-DB for patients entering OL. The macitentan treatment-emergent period was defined as the period from the first intake of macitentan up to end of macitentan treatment (EOMT)+30 days. EOMT was defined as EOT-DB (for patient who received macitentan only in the DB period) or EOT-OL when applicable. For patients entering OLE, the EOMT is EOT-OL. • Treatment-emergent AEs • Treatment-emergent deaths • Treatment-emergent serious adverse events (SAEs) • AEs leading to premature discontinuation of study treatment • Occurrence of post-baseline LFT (ALT and/or AST) abnormalities, classified as: • ≥3×ULN; • ≥5×ULN; • ≥8×ULN; • ≥3×ULN and <5×ULN; • […] and <8×ULN. • Occurrence of post-baseline ALT and/or AST abnormality 3×ULN and concomitant (i.e., at the same time) total bilirubin ≥2×ULN • Occurrence of post-baseline ALT and/or AST abnormality ≥3×ULN and concomitant (i.e., at the same time) total bilirubin ≥2×ULN and increased as compared to baseline • Occurrence of hemoglobin abnormalities, classified as: • ≤80 g/L, • >80 and ≤100 g/L, • decrease from baseline ≥20 g/L and <50 g/L, • decrease from baseline ≥50 g/L, • <100 g/L and concurrent (i.e., at the same time) decrease from baseline ≥20 g/L. • Other treatment-emergent marked laboratory abnormalities • Change from baseline/macitentan baseline to EOT-DB/EOMT in vital signs • Change from baseline/macitentan baseline to EOT-DB/EOMT in laboratory variables • Change from baseline/macitentan baseline to EOT-DB/EOMT in Child-Pugh classification • Change from baseline/macitentan baseline to EOT-DB/EOMT in MELD score

patients with PoPH [3] = test: PORTICO: Borg dyspnea index after 6MWT; assay type: in vivo, human; conditions: DB period
Protocol: (iv) 6-minute walk test, including Borg dyspnea index: The 6MWT was performed at Screening, Baseline (Visit 2/Randomization), and then every Visit until EOT-DB or EOT-OL, whichever came last. It is a non-encouraged test that measures the distance walked by the patient in six minutes. It is important that for each individual patient the 6MWT was conducted under the same conditions throughout the study (e.g., same location, same tester, same time of day, with or without nasal oxygen therapy and where applicable with same flow rate as Baseline). The Borg dyspnea index was evaluated after each 6MWT. It rates dyspnea on a scale from 0 to 10.
Double-blind treatment period: Changes from baseline to Week 12 in HVPG/HVPG (central review) and Borg dyspnea index (related to the DB treatment period) are summarized by treatment group in the FAS using descriptive statistics.

[4] = LL at baseline, DB phase, Safety set, 10 mg
[5] = LL at baseline, macitentan DB + OL phase, Macitentan treated set
[6] = Normal at baseline, DB phase, Safety set, 10 mg
[7] = Normal at baseline, macitentan DB + OL phase, Macitentan treated set

CCCNS(=O)(=O)Nc1ncnc(OCCOc2ncc(Br)cn2)c1-c1ccc(Br)cc1 [macitentan, N-[5-(4-Bromophenyl)-6-[2-[(5-bromo-2-pyrimidinyl)oxy]ethoxy]-4-pyrimidinyl]-N′-propylsulfamide]
HVPG (central review) mean change from baseline at Week 12 (patients with PoPH [1]): −0.5 mmHg | Median decrease in lymphocyte count, baseline to Week 12 (patients with PoPH [2]; DB phase, macitentan group): 2.8e+08 L⁻¹ | Median decrease in neutrophil count, baseline to Week 12 (patients with PoPH [2]; DB phase, macitentan group): 7.2e+08 L⁻¹ | Median decrease in platelets at Week 12 (patients with PoPH [2]; DB phase, macitentan group): 1.1e+10 L⁻¹ | Median lymphocyte count at Week 12 (patients with PoPH [2]; DB phase, macitentan group): 1.04e+09 L⁻¹ | Median neutrophil count at Week 12 (patients with PoPH [2]; DB phase, macitentan group): 2.25e+09 L⁻¹ | Patients with neutrophil decreases from normal at baseline to <1.5×10^9/L (patients with PoPH [2]; DB phase, macitentan group): 6/41 | Patients with normal platelets at baseline decreasing to <75×10^9/L (patients with PoPH [2]; DB phase, macitentan group): 2/29 | Leukocytes (10^9/L) <2.0 (LLL), worst treatment-emergent marked abnormality (patients with PoPH [2]; [4]): 2/5 | Lymphocytes (10^9/L) <0.5 (LLL), worst treatment-emergent marked abnormality (patients with PoPH [2]; [4]): 3/5 | Neutrophils (10^9/L) <1.0 (LLL), worst treatment-emergent marked abnormality (patients with PoPH [2]; [4]): 0/2 | Leukocytes (10^9/L) <2.0 (LLL), worst treatment-emergent marked abnormality (patients with PoPH [2]; [5]): 3/7 | Lymphocytes (10^9/L) <0.5 (LLL), worst treatment-emergent marked abnormality (patients with PoPH [2]; [5]): 6/10 | Neutrophils (10^9/L) <1.0 (LLL), worst treatment-emergent marked abnormality (patients with PoPH [2]; [5]): 0/2 | Leukocytes (10^9/L) <2.0 (LLL), worst treatment-emergent marked abnormality (patients with PoPH [2]; [6]): 0/38 | Leukocytes (10^9/L) <3.0 −≥ 2.0 (LL), worst treatment-emergent marked abnormality (patients with PoPH [2]; [6]): 5/38 | Lymphocytes (10^9/L) <0.5 (LLL), worst treatment-emergent marked abnormality (patients with PoPH [2]; [6]): 1/38 | Lymphocytes (10^9/L) <0.8 −≥ 0.5 (LL), worst treatment-emergent marked abnormality (patients with PoPH [2]; [6]): 8/38 | Neutrophils (10^9/L) <1.0 (LLL), worst treatment-emergent marked abnormality (patients with PoPH [2]; [6]): 2/41 | Neutrophils (10^9/L) <1.5 −≥ 1.0 (LL), worst treatment-emergent marked abnormality (patients with PoPH [2]; [6]): 4/41 | Leukocytes (10^9/L) <2.0 (LLL), worst treatment-emergent marked abnormality (patients with PoPH [2]; [7]): 4/76 | Leukocytes (10^9/L) <3.0 −≥ 2.0 (LL), worst treatment-emergent marked abnormality (patients with PoPH [2]; [7]): 9/76 | Lymphocytes (10^9/L) <0.5 (LLL), worst treatment-emergent marked abnormality (patients with PoPH [2]; [7]): 2/72 | Lymphocytes (10^9/L) <0.8 −≥ 0.5 (LL), worst treatment-emergent marked abnormality (patients with PoPH [2]; [7]): 19/72 | Neutrophils (10^9/L) <1.0 (LLL), worst treatment-emergent marked abnormality (patients with PoPH [2]; [7]): 5/81 | Neutrophils (10^9/L) <1.5 −≥ 1.0 (LL), worst treatment-emergent marked abnormality (patients with PoPH [2]; [7]): 12/81 | Patients with shifts in lymphocyte counts from normal at baseline to <0.8×10^9/L (patients with PoPH [2]; any time during DB phase, macitentan group): 9/38 | Median decrease from baseline in platelet counts (patients with PoPH [2]; combined DB+OL phase): no median decrease | Median decrease in lymphocyte count, baseline to Week 24 (patients with PoPH [2]; macitentan DB+OL phase): 2.4e+08 L⁻¹ | Median decrease in neutrophil count, baseline to Week 24 (patients with PoPH [2]; macitentan DB+OL phase): 3.3e+08 L⁻¹ | Median lymphocyte count at Week 24 (patients with PoPH [2]; macitentan DB+OL phase): 1.05e+09 L⁻¹ | Median neutrophil count at Week 24 (patients with PoPH [2]; macitentan DB+OL phase): 2.4e+09 L⁻¹ | Patients with platelet decreases from normal at macitentan baseline to <75×10^9/L (patients with PoPH [2]; macitentan DB+OL phase): 7 patients | Patients with shifts in lymphocyte counts from normal at baseline to <0.8×10^9/L (patients with PoPH [2]; macitentan DB+OL phase): 21/72 | Patients with shifts in neutrophil counts from normal at baseline to notably low (patients with PoPH [2]; macitentan DB+OL phase): 17/81 | Change in Borg dyspnea score over time (patients with PoPH [3]): no change
